The record followed here is PubChem BioAssay AID298 (DTP/NCI, 2004).

In the test the test system is MX-1 breast xenograft, intrarenal, nude mice, tumor weight. The test is described as follows: NCI In Vivo Anticancer Drug Screen. Data for tumor model Human Mammary Carcinoma MX-1 Xenograft (intrarenal inoculation) in NU/NU BALB/C (nude) mice. As to conditions: endpoint: mean tumor weight change, higher = larger tumour. Summed up:
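Compounds were given to mice carrying transplanted tumors, and tumor size or survival was measured. Each value is the treated-group measurement (T) divided by the vehicle-treated control-group measurement (C).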

[1] abbreviates: dose: 75.0 mg/kg/injection, schedule: Q04DX003 (sc), vehicle: saline with Tween-80.
Where [2] appears, read: dose: 150.0 mg/kg/injection, schedule: Q04DX003 (sc), vehicle: saline with Tween-80.
The mark [3] stands for this setting: dose: 300.0 mg/kg/injection, schedule: Q04DX003 (sc), vehicle: saline with Tween-80.
Where [4] appears, read: dose: 150.0 mg/kg/injection, schedule: Q04DX003 (ip), vehicle: saline with Tween-80.
Where [5] appears, read: dose: 300.0 mg/kg/injection, schedule: Q04DX003 (ip), vehicle: saline with Tween-80.

Values joined by “and” are separate entries in the source; they are usually repeats but may differ in a detail not shown here. Equal entries are not always repeated. Inconclusive results are not listed.

As to `CC(=O)N(C)O`, the T/C (dose: 37.5 mg/kg/injection, schedule: Q04DX003 (sc), vehicle: saline with Tween-80) was 98 % of control; the T/C under setting [1] was 80 % of control; the T/C under setting [2] is 69 % of control; the T/C under setting [3] was 87 % of control.
In the case of `O=C(CCCCCCC(=O)ON1C(=O)CCC1=O)ON1C(=O)CCC1=O`, the T/C by setting is: under setting [3], 110 % of control; (dose: 600.0 mg/kg/injection, schedule: Q04DX003 (sc), vehicle: saline with Tween-80) 96 % of control; (dose: 1200.0 mg/kg/injection, schedule: Q04DX003 (sc), vehicle: saline with Tween-80) 81 % of control; (dose: 2400.0 mg/kg/injection, schedule: Q04DX003 (sc), vehicle: saline with Tween-80) 85 % of control.
As for `c1ccc2c3c(c4c(c2c1)CN(C1CCCCC1)CO4)OCN(C1CCCCC1)C3`, the T/C reads like this: (dose: 37.5 mg/kg/injection, schedule: Q04DX003 (ip), vehicle: water) 108 % of control; (dose: 75.0 mg/kg/injection, schedule: Q04DX003 (ip), vehicle: water) 82 % of control and 88 % of control; (dose: 150.0 mg/kg/injection, schedule: Q04DX003 (ip), vehicle: water) 59 % of control; (dose: 300.0 mg/kg/injection, schedule: Q04DX003 (ip), vehicle: water) 111 % of control.
For the molecule `Nc1nc2ncn(O)c2c(=O)[nH]1`, the T/C is, setting by setting: (dose: 25.0 mg/kg/injection, schedule: Q04DX003 (ip), vehicle: water) 25 % of control and 41 % of control; (dose: 50.0 mg/kg/injection, schedule: Q04DX003 (ip), vehicle: water) 13 % of control.
`N#CCS(=O)(=O)c1cccc[n+]1[O-]`: the T/C is, setting by setting: under setting [4], 77 % of control; under setting [5], 67 % of control.
As to `CN1C2CCC1C(Br)C(=O)C2` (centres undefined), the T/C is 100 % of control (dose: 100.0 mg/kg/injection, schedule: Q04DX003 (ip), vehicle: saline) and 66 % of control (dose: 200.0 mg/kg/injection, schedule: Q04DX003 (ip), vehicle: saline).
Take `CC(=O)CC(=O)CCC(=O)O`: the T/C reads like this: (dose: 300.0 mg/kg/injection, schedule: Q04DX003 (sc), vehicle: saline) 88 % of control; (dose: 1200.0 mg/kg/injection, schedule: Q04DX003 (sc), vehicle: saline) 78 % of control.
As for `CC1=C(/C=C/C(C)=C/C=C/C(C)=C/C(=O)Nc2ccc(O)cc2)C(C)(C)CCC1`, the T/C by setting is: (dose: 100.0 mg/kg/injection, schedule: Q04DX003 (ip), vehicle: saline with Tween-80) 67 % of control; (dose: 200.0 mg/kg/injection, schedule: Q04DX003 (ip), vehicle: saline with Tween-80) 81 % of control; (dose: 400.0 mg/kg/injection, schedule: Q04DX003 (ip), vehicle: saline with Tween-80) 58 % of control; (dose: 800.0 mg/kg/injection, schedule: Q04DX003 (ip), vehicle: saline with Tween-80) 69 % of control.
On to `CC1=C/C(O)CC(=O)Cc2nc(co2)C(=O)N2CCC=C2C(=O)OC(C(C)C)C(C)/C=C\C(=O)NC/C=C\1` (centres undefined), for which the T/C (dose: 600.0 mg/kg/injection, schedule: Q04DX003 (sc), vehicle: Klucel (hydroxypropylcellulose) (HPC)) was 104 % of control; the T/C (dose: 1200.0 mg/kg/injection, schedule: Q04DX003 (sc), vehicle: Klucel (hydroxypropylcellulose) (HPC)) is 92 % of control; the T/C (dose: 2400.0 mg/kg/injection, schedule: Q04DX003 (sc), vehicle: Klucel (hydroxypropylcellulose) (HPC)) was 88 % of control.
Regarding `CN(CO)c1nc(N(C)CO)nc(N(C)CO)n1`, the T/C was 86 % of control (dose: 6.25 mg/kg/injection, schedule: Q01DX010 (sc), vehicle: saline); 30 % of control (dose: 12.5 mg/kg/injection, schedule: Q01DX010 (sc), vehicle: saline); 2 % of control (dose: 25.0 mg/kg/injection, schedule: Q01DX010 (sc), vehicle: saline); 1 % of control (dose: 100.0 mg/kg/injection, schedule: Q01DX010 (sc), vehicle: saline).
`O=C1C=CC(=CC=C2C=CN(CCCCCCCCCCCO)C=C2)C=C1`: the T/C by setting is: (dose: 12.5 mg/kg/injection, schedule: Q04DX003 (ip), vehicle: saline with Tween-80) 89 % of control; (dose: 25.0 mg/kg/injection, schedule: Q04DX003 (ip), vehicle: saline with Tween-80) 84 % of control; (dose: 50.0 mg/kg/injection, schedule: Q04DX003 (ip), vehicle: saline with Tween-80) 69 % of control.
As for `CCOC1NC(=O)Oc2ccccc21` (centres undefined), the T/C is, setting by setting: (dose: 150.0 mg/kg/injection, schedule: Q04DX003 (ip), vehicle: Klucel (hydroxypropylcellulose) (HPC)) 80 % of control; (dose: 300.0 mg/kg/injection, schedule: Q04DX003 (ip), vehicle: Klucel (hydroxypropylcellulose) (HPC)) 74 % of control; (dose: 600.0 mg/kg/injection, schedule: Q04DX003 (ip), vehicle: Klucel (hydroxypropylcellulose) (HPC)) 86 % of control; (dose: 1200.0 mg/kg/injection, schedule: Q04DX003 (ip), vehicle: Klucel (hydroxypropylcellulose) (HPC)) 79 % of control.
Turning to `COc1cccc2c1C(=N)c1c(O)c3c(c(O)c1C2=O)C[C@@](O)(C(C)=O)C[C@@H]3OC1CC(N)C(O)C(C)O1` (some centres undefined), the T/C is, setting by setting: (dose: 4.0 mg/kg/injection, schedule: Q01DX010 (sc), vehicle: water) 51 % of control; (dose: 8.0 mg/kg/injection, schedule: Q01DX010 (sc), vehicle: water) 56 % of control; (dose: 16.0 mg/kg/injection, schedule: Q01DX010 (sc), vehicle: water) 56 % of control.
With `CN=S(=O)(OCCCCCOS(=O)(=NC)c1ccc(C)cc1)c1ccc(C)cc1` (centres undefined), the T/C was 86 % of control under setting [1] and 61 % of control under setting [2].
Regarding `CNC(=O)O/N=C(\CN=[N+]=[N-])C(C)(C)C`, the T/C is, setting by setting: (dose: 0.63 mg/kg/injection, schedule: Q04DX003 (sc), vehicle: saline) 116 % of control; (dose: 1.25 mg/kg/injection, schedule: Q04DX003 (sc), vehicle: saline) 71 % of control; (dose: 2.5 mg/kg/injection, schedule: Q04DX003 (sc), vehicle: saline) 84 % of control.
As for `CN(C)c1nc(N(C)C)nc(N(C)C)n1`, the T/C was 102 % of control (dose: 12.5 mg/kg/injection, schedule: Q01DX010 (sc), vehicle: saline with Tween-80); 84 % of control (dose: 15.0 mg/kg/injection, schedule: Q01DX010 (sc), vehicle: saline with Tween-80); 36 % of control (dose: 25.0 mg/kg/injection, schedule: Q01DX010 (ip), vehicle: Klucel (hydroxypropylcellulose) (HPC)); 56 % of control (dose: 25.0 mg/kg/injection, schedule: Q01DX010 (sc), vehicle: saline with Tween-80); 3 % of control (dose: 30.0 mg/kg/injection, schedule: Q01DX010 (sc), vehicle: saline with Tween-80); 7 % of control (dose: 50.0 mg/kg/injection, schedule: Q01DX010 (sc), vehicle: saline with Tween-80). For the same molecule, the T/C is -30 % of control (dose: 60.0 mg/kg/injection, schedule: Q01DX010 (sc), vehicle: saline with Tween-80); 37 % of control under setting [1]; -100 % of control (dose: 100.0 mg/kg/injection, schedule: Q01DX010 (ip), vehicle: Klucel (hydroxypropylcellulose) (HPC)); 9 % of control (dose: 100.0 mg/kg/injection, schedule: Q01DX010 (sc), vehicle: saline with Tween-80); -90 % of control (dose: 120.0 mg/kg/injection, schedule: Q01DX010 (sc), vehicle: saline with Tween-80); 16 % of control under setting [2]. Also, the T/C was -100 % of control (dose: 200.0 mg/kg/injection, schedule: Q01DX010 (ip), vehicle: Klucel (hydroxypropylcellulose) (HPC)); -5 % of control (dose: 200.0 mg/kg/injection, schedule: Q01DX010 (sc), vehicle: saline with Tween-80); -60 % of control under setting [3].
In the case of `O=P1(NCCCl)OCCCN1CCCl` (centres undefined), the T/C (dose: 150.0 mg/kg/injection, schedule: Q04DX003 (sc), vehicle: saline) was -32 % of control.
Take `O=C(Nc1cc(Cl)ccc1C(=O)O)c1cccc(C[n+]2ccccc2)c1`: the T/C was 109 % of control under setting [4]; 109 % of control under setting [5]; 82 % of control (dose: 600.0 mg/kg/injection, schedule: Q04DX003 (ip), vehicle: saline with Tween-80).
`NC(=S)N/N=C/c1cc(=O)c2cc(Cl)ccc2o1`: the T/C (dose: 150.0 mg/kg/injection, schedule: Q04DX003 (ip), vehicle: other) is 117 % of control; the T/C (dose: 300.0 mg/kg/injection, schedule: Q04DX003 (ip), vehicle: other) was 103 % of control; the T/C (dose: 600.0 mg/kg/injection, schedule: Q04DX003 (ip), vehicle: other) was 117 % of control; the T/C (dose: 1200.0 mg/kg/injection, schedule: Q04DX003 (ip), vehicle: other) is 106 % of control.
